# Residue numbers refer to the chain shown, from its start.
# Experiments:
# [1] = molecular target: T1, full-length human JP2 (junctophilin-2) (Homo sapiens, UniProt Q9BR39, S101R); assay: QCM-D, supported lipid bilayer, one-site isotherm; format: binding; details: read-out: DOPC/DOPE/POPC/DOPS (55:15:10:20, by vol.) / S101R
# T1 construct: gene JPH2; full-length, N-terminal MBP tag removed with PreScission protease; E. coli BL21; ~75 kDa on SDS/PAGE; stated as monomeric
# T1 sequence (Q9BR39 1-696 S101R): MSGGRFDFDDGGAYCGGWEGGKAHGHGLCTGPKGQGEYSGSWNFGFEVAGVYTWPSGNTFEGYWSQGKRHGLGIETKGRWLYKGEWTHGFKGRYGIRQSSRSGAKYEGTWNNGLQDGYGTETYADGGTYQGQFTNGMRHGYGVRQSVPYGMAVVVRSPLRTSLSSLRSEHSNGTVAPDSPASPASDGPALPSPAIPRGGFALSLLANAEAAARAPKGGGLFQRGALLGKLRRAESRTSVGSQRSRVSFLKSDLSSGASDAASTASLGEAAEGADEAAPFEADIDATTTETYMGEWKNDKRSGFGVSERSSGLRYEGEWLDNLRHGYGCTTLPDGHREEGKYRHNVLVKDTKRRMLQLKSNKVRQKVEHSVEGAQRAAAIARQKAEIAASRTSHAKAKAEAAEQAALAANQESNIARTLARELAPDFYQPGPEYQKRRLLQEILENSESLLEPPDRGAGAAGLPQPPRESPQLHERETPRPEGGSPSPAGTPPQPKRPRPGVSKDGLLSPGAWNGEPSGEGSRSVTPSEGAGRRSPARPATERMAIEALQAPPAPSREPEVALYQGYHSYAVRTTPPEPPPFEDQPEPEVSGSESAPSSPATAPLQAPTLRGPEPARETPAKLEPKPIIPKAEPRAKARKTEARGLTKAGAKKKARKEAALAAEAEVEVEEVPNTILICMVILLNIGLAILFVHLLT
# Source text: (§1) QCM-D, supported lipid bilayer, one-site isotherm on full-length human JP2 (junctophilin-2)
# [2] = molecular target: T2, full-length human JP2 (junctophilin-2) (Homo sapiens, UniProt Q9BR39); assay: QCM-D, supported lipid bilayer, one-site isotherm; format: binding; details: read-out: DOPC/DOPE/POPC/DOPS (55:15:10:20, by vol.) JP2
# T2 construct: gene JPH2; full-length, N-terminal MBP tag removed with PreScission protease; E. coli BL21; ~75 kDa on SDS/PAGE; stated as monomeric
# T2 sequence (Q9BR39 1-696): T1 sequence (Q9BR39 1-696 S101R) with R101S
# Source text: as §1
# [3] = molecular target: T3, JP2^1–452 (N-terminal domain) (Homo sapiens, UniProt Q9BR39); assay: QCM-D, supported lipid bilayer, one-site isotherm; format: binding; details: read-out: DOPC/DOPE/POPC/DOPS (55:15:10:20, by vol.) / JP2^1-452
# T3 construct: gene JPH2; N-terminal segment, residues 1-452, N-terminal MBP tag removed with PreScission protease; E. coli BL21; ~50 kDa on SDS/PAGE
# T3 sequence (Q9BR39 1-452): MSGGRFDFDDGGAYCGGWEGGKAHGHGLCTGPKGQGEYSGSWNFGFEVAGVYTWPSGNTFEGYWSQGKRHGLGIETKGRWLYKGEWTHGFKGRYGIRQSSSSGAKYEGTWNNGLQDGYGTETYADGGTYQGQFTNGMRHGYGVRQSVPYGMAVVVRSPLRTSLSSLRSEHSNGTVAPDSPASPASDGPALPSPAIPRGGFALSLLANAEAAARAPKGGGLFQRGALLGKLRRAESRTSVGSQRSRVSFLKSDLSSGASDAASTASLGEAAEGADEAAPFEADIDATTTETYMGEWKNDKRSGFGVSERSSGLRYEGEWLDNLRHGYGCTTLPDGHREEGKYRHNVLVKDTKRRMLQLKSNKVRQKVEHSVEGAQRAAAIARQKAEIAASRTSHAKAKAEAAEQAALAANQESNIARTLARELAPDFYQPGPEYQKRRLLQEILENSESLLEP
# Source text: QCM-D, supported lipid bilayer, one-site isotherm on JP2^1–452 (N-terminal domain)
# [4] = molecular target: T2, full-length human JP2 (junctophilin-2); assay: protein-lipid overlay; details: weak binding
structure (smiles),measurement,setting,value
"CCCCCCCC/C=C\CCCCCCCC(=O)OC[C@H](COP(=O)(O)OC[C@H](N)C(=O)O)OC(=O)CCCCCCC/C=C\CCCCCCCC [DOPS, 1,2-dioleoyl-sn-glycero-3-phospho-L-serine]",Kd,[1],371 ± 31 nM
same,Kd,[2],483 ± 54 nM
same,Kd,[3],992 ± 80 nM
"CCCCCCCC/C=C\CCCCCCCC(=O)OC[C@H](COP(=O)(O)OCC(O)CO)OC(=O)CCCCCCC/C=C\CCCCCCCC (stereo partly shown) [DOPG, 1,2-dioleoyl-sn-glycero-3-phosphoglycerol]",protein-lipid overlay,[4],there is only weak binding of JP2 to DOPG
